In PubChem BioAssay (NCI):
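Step 1: Grow cells in 96-well plates. Step 2: Expose to compound for 48 hours at 5 concentrations. Step 3: Interpolate endpoints linearly; if unreached, use highest concentration. Here, GI50 denotes the concentration required for 50% inhibition of growth. Definition used: TGI = concentration required for complete inhibition of growth.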

What was measured:
Assay in all cases: NCI-60 cell line screen, 48 h
HCT-116 colon = test system: HCT-116 colon
HS 578T breast = test system: HS 578T breast
UO-31 renal = test system: UO-31 renal
A549 NSCLC = test system: A549 NSCLC
NCI-H226 lung = test system: NCI-H226 lung
K-562 leukemia = test system: K-562 leukemia
MDA-MB-231 breast = test system: MDA-MB-231 breast
ACHN renal = test system: ACHN renal
KM12 colon = test system: KM12 colon
HL-60(TB) leukemia = test system: HL-60(TB) leukemia
UACC-257 melanoma = test system: UACC-257 melanoma
OVCAR-5 ovarian = test system: OVCAR-5 ovarian
A498 renal = test system: A498 renal
HCC-2998 colon = test system: HCC-2998 colon
COLO 205 colon = test system: COLO 205 colon
NCI-H23 lung = test system: NCI-H23 lung
MCF7 breast = test system: MCF7 breast
TK-10 renal = test system: TK-10 renal
SK-MEL-5 melanoma = test system: SK-MEL-5 melanoma
OVCAR-3 ovarian = test system: OVCAR-3 ovarian
OVCAR-4 ovarian = test system: OVCAR-4 ovarian
SK-OV-3 ovarian = test system: SK-OV-3 ovarian
SN12C renal = test system: SN12C renal
HOP-62 NSCLC = test system: HOP-62 NSCLC
HT29 colon = test system: HT29 colon
DU-145 prostate = test system: DU-145 prostate
NCI-H460 lung = test system: NCI-H460 lung
SK-MEL-28 melanoma = test system: SK-MEL-28 melanoma
RPMI-8226 leukemia = test system: RPMI-8226 leukemia
M14 melanoma = test system: M14 melanoma
HOP-92 NSCLC = test system: HOP-92 NSCLC
T-47D breast = test system: T-47D breast
BT-549 breast = test system: BT-549 breast
MDA-N = test system: MDA-N
MOLT-4 leukemia = test system: MOLT-4 leukemia
MDA-MB-435 = test system: MDA-MB-435
OVCAR-8 ovarian = test system: OVCAR-8 ovarian
LOX IMVI melanoma = test system: LOX IMVI melanoma
786-0 renal = test system: 786-0 renal
SF-539 CNS = test system: SF-539 CNS
HCT-15 colon = test system: HCT-15 colon
SF-268 CNS = test system: SF-268 CNS
U251 CNS = test system: U251 CNS
IGROV1 ovarian = test system: IGROV1 ovarian
SNB-75 CNS = test system: SNB-75 CNS
SNB-19 CNS = test system: SNB-19 CNS
CCRF-CEM leukemia = test system: CCRF-CEM leukemia
CAKI-1 renal = test system: CAKI-1 renal
NCI/ADR-RES ovarian = test system: NCI/ADR-RES ovarian
MALME-3M melanoma = test system: MALME-3M melanoma
UACC-62 melanoma = test system: UACC-62 melanoma
SF-295 CNS = test system: SF-295 CNS
NCI-H522 lung = test system: NCI-H522 lung
PC-3 prostate = test system: PC-3 prostate
SR leukemia = test system: SR leukemia
RXF 393 renal = test system: RXF 393 renal
EKVX NSCLC = test system: EKVX NSCLC
SW-620 colon = test system: SW-620 colon
SK-MEL-2 melanoma = test system: SK-MEL-2 melanoma
KM20L2 colon = test system: KM20L2 colon
M19-MEL melanoma = test system: M19-MEL melanoma
LXFL 529 NSCLC = test system: LXFL 529 NSCLC
DMS 114 small cell lung = test system: DMS 114 small cell lung
HOP-18 NSCLC = test system: HOP-18 NSCLC

CSc1ccc(/C=C2\N=C(c3ccccc3)N(c3nc4ccc(Sc5ccccc5)cc4[nH]3)C2=O)cc1
TGI (HCT-116 colon): 48.5 µM
TGI (HS 578T breast): 58.1 µM
TGI (UO-31 renal): 68.5 µM
TGI (A549 NSCLC): > 97.2 µM
GI50 (NCI-H226 lung): 20.6 µM
TGI (NCI-H226 lung): > 83.1 µM
TGI (K-562 leukemia): 66.4 µM
TGI (MDA-MB-231 breast): 55.5 µM
TGI (ACHN renal): > 100 µM
TGI (KM12 colon): 52 µM
TGI (HL-60(TB) leukemia): 49.4 µM
TGI (UACC-257 melanoma): 55.6 µM
TGI (OVCAR-5 ovarian): 83.7 µM
TGI (A498 renal): 62 µM
TGI (HCC-2998 colon): 38.2 µM
TGI (COLO 205 colon): 30.9 µM
TGI (NCI-H23 lung): > 94.5 µM
TGI (MCF7 breast): 45.9 µM
TGI (TK-10 renal): 60.8 µM
TGI (SK-MEL-5 melanoma): 27.3 µM
TGI (OVCAR-3 ovarian): 35.9 µM
TGI (OVCAR-4 ovarian): > 100 µM
TGI (SK-OV-3 ovarian): 60.8 µM
TGI (SN12C renal): > 84.2 µM
TGI (HOP-62 NSCLC): 65.9 µM
TGI (HT29 colon): 50.4 µM
TGI (DU-145 prostate): 70.7 µM
TGI (NCI-H460 lung): 61.3 µM
TGI (SK-MEL-28 melanoma): 51.8 µM
TGI (RPMI-8226 leukemia): 57.2 µM
TGI (M14 melanoma): 32.5 µM
TGI (HOP-92 NSCLC): 34 µM
TGI (T-47D breast): 60.6 µM
TGI (BT-549 breast): 50.1 µM
TGI (MDA-N): 18 µM
TGI (MOLT-4 leukemia): 80.9 µM
TGI (MDA-MB-435): 16.1 µM
TGI (OVCAR-8 ovarian): > 87.4 µM
TGI (LOX IMVI melanoma): 41.6 µM
TGI (786-0 renal): 50.8 µM
GI50 (SF-539 CNS): 15 µM
TGI (SF-539 CNS): 32.5 µM
TGI (HCT-15 colon): > 86.2 µM
TGI (SF-268 CNS): > 77.8 µM
TGI (U251 CNS): 41.3 µM
TGI (IGROV1 ovarian): > 100 µM
TGI (SNB-75 CNS): 45.6 µM
TGI (SNB-19 CNS): > 89.2 µM
TGI (CCRF-CEM leukemia): 86.8 µM
TGI (CAKI-1 renal): > 94 µM
TGI (NCI/ADR-RES ovarian): 72.3 µM
TGI (MALME-3M melanoma): > 58.5 µM
TGI (UACC-62 melanoma): 39.1 µM
TGI (SF-295 CNS): 50.5 µM
TGI (NCI-H522 lung): 39.9 µM
TGI (PC-3 prostate): > 87.9 µM
GI50 (SR leukemia): 13.7 µM
TGI (SR leukemia): > 87.5 µM
TGI (RXF 393 renal): 56.9 µM
TGI (EKVX NSCLC): > 100 µM
TGI (SW-620 colon): 52.5 µM
TGI (SK-MEL-2 melanoma): 37 µM

O=C1CC[C@@H](S(=O)(=O)c2ccccc2)[C@@H](/C=C/c2ccccc2)O1
TGI (HCT-116 colon): > 100 µM
TGI (UO-31 renal): > 100 µM
TGI (A549 NSCLC): > 100 µM
TGI (NCI-H226 lung): > 100 µM
TGI (K-562 leukemia): > 100 µM
TGI (ACHN renal): > 100 µM
TGI (KM12 colon): > 100 µM
TGI (HL-60(TB) leukemia): > 100 µM
TGI (UACC-257 melanoma): > 100 µM
TGI (OVCAR-5 ovarian): > 100 µM
TGI (A498 renal): > 100 µM
TGI (HCC-2998 colon): > 100 µM
TGI (COLO 205 colon): > 100 µM
TGI (NCI-H23 lung): > 100 µM
TGI (TK-10 renal): > 100 µM
TGI (SK-MEL-5 melanoma): > 100 µM
TGI (OVCAR-3 ovarian): > 100 µM
TGI (OVCAR-4 ovarian): > 100 µM
TGI (SK-OV-3 ovarian): > 100 µM
TGI (SN12C renal): > 100 µM
TGI (HOP-62 NSCLC): > 100 µM
TGI (HT29 colon): > 100 µM
TGI (KM20L2 colon): > 100 µM
TGI (NCI-H460 lung): > 100 µM
TGI (M19-MEL melanoma): > 100 µM
TGI (SK-MEL-28 melanoma): > 100 µM
TGI (RPMI-8226 leukemia): > 100 µM
TGI (M14 melanoma): > 100 µM
TGI (MOLT-4 leukemia): > 100 µM
TGI (OVCAR-8 ovarian): > 100 µM
TGI (LOX IMVI melanoma): > 100 µM
TGI (LXFL 529 NSCLC): > 100 µM
TGI (786-0 renal): > 100 µM
TGI (SF-539 CNS): > 100 µM
TGI (HCT-15 colon): > 100 µM
TGI (DMS 114 small cell lung): > 100 µM
TGI (U251 CNS): > 100 µM
TGI (IGROV1 ovarian): > 100 µM
TGI (SNB-75 CNS): > 100 µM
TGI (SNB-19 CNS): > 100 µM
TGI (CCRF-CEM leukemia): > 100 µM
TGI (HOP-18 NSCLC): > 100 µM
TGI (MALME-3M melanoma): > 100 µM
TGI (UACC-62 melanoma): > 100 µM
TGI (SF-295 CNS): > 100 µM
TGI (NCI-H522 lung): > 100 µM
TGI (SR leukemia): > 100 µM
TGI (RXF 393 renal): > 100 µM
TGI (EKVX NSCLC): > 100 µM
TGI (SW-620 colon): > 100 µM
